For test [1], the system named is STZ-induced diabetes in mice. Kind of test: Plasma insulin. Conditions: two weeks of treatment, mean of 6 mice ± SEM. It is filed as in vivo.
A further test concerns the target α-glucosidase. Kind of test: α-Glucosidase inhibition assay. The settings on record: for IC50: read-out: α-Glucosidase IC50, Table 3, DF = 100. It is filed as biochemical.
The test system of test [2] is STZ-induced diabetes in mice. Kind of test: Blood glucose in STZ-induced diabetes in mice. The format is in vivo. Conditions: p < 0.05.
In test [3] the test system is STZ-induced diabetes in mice. Kind of test: Kidney function parameters. The format is in vivo. The settings on record: two weeks of treatment, mean of 6 mice ± SEM; for Urea: plasma.
Test [4] concerns STZ-induced diabetes in mice. Kind of test: Oxidative stress markers. The format is in vivo. Conditions: plasma, two weeks of treatment, mean of 6 mice ± SEM.
In test [5] the test system is STZ-induced diabetes in mice. Kind of test: Liver function markers. The format is in vivo. The settings on record: plasma, two weeks of treatment, mean of 6 mice ± SEM.

The record followed here is PMC467095 (Journal of Enzyme Inhibition and Medicinal Chemistry, 2024).

Usually IC50 stands for the concentration that inhibits the measured activity by half. Regarding `O=C1CSC(N=C2c3ccccc3-c3nc4cc(F)ccc4nc32)=N1` [Compound 4], the Insulin in test [1] was 11.44 ± 0.2^a^,^b ng/mL. Further, on α-glucosidase, the IC50 was found to be 10.2 µM.
In the same order, the values of `CCOC(=O)c1sc(N=C2c3ccccc3-c3nc4cc(F)ccc4nc32)nc1C` [Compound 6] are 12.28 ± 0.3^a^,^b ng/mL and 3 µM.
In the same order, the values of `CC(=O)c1sc(NN=C2c3ccccc3-c3nc4cc(F)ccc4nc32)nc1C` [Compound 8, 1–(2-(2–(7-fluoro-11H-indeno[1,2-b]quinoxalin-11-ylidene)-hydrazineyl)-4-methyl-thiazol-5-yl)-ethan-1-one] are 10.5 ± 0.3^a^,^b ng/mL and 0.982 µM.
In the case of `CCC1SC(NN=C2c3ccccc3-c3nc4cc(F)ccc4nc32)=NC1=O` (centres unmarked) [Compound 16], the Insulin in test [1] is 9.34 ± 0.3^a^,^b ng/mL. The IC50 on α-glucosidase was found to be 7.03 µM. Moreover, on α-glucosidase (± SD), the “α-glucosidase inhibition IC50” value is listed as “good activity”.
With `Cc1ccc(S(=O)(=O)NC(=O)NN2CC3CCCC3C2)cc1` (centres unmarked) [Gliclazide], in test [2], the “Blood sugar levels compared to the STZ-only treatment group” value is listed as “declined significantly”. Moreover, the values for the Insulin in test [1] and in test [1] (listed as gliclazide) were 14.52 ± 0.4^a^,^b ng/mL and “rose”, respectively. Also, the Creat in test [3] (plasma creatinine) is 3.3 ± 0.1^a^,^b. The values for the Urea in test [3] and in test [3] (listed as gliclazide) were 57.5 ± 0.3^a^,^b and “significant lowering”, respectively. The GSH in test [4] is recorded as 3.15 ± 0.05^a^,^b; in test [4] (listed as gliclazide), “significant elevation”. Further, the MDA in test [4] is reported as 22 ± 0.2^a^,^b; in test [4] (listed as gliclazide), “significant reduction”. Moreover, the ALT in test [5] was 53.7 ± 0.7^a^,^b; in test [5] (listed as gliclazide) it was “significant reduction”. For the same molecule, the AST is 39.8 ± 0.3^a^,^b in test [5] and “significant reduction” in test [5] (listed as gliclazide).
